Square brackets hold non-standard residues; d marks the D form. Ends that are not written are not given here. Peptide text beside a SMILES is read from it. * marks the point of attachment. hArg = N=C(N)NCCCC[C@H](N)C(=O)O; Octanoyl = CCCCCCCC(=O)*

Results on 17 compounds are retold here after patent publication US5654274A, “Biologically active peptides having N-terminal substitutions” (priority 1995, dated 1997).

For the first assay, the system named is P. gingivalis. Kind of assay: Anaerobic antimicrobial susceptibility test (NCCLS M11-T2), P. gingivalis. Particulars: strain W50, BHI broth, 24-48 hours. The class given is cell-based.
For `CC[C@H](C)[C@H](NC(=O)[C@H](CCCCNC(=N)N)NC(=O)CNC(=O)[C@H](C)NC(=O)[C@@H](NC(=O)[C@H](CCCCNC(=N)N)NC(=O)[C@H](C)NC(=O)[C@@H](NC(=O)[C@H](CCCCNC(=N)N)NC(=O)CNC(=O)[C@H](C)NC(=O)[C@@H](NC(=O)[C@H](CCCCNC(=N)N)NC(=O)[C@H](C)NC(=O)[C@@H](NC(=O)[C@H](CCCCNC(=N)N)NC(=O)CNC(=O)[C@H](C)NC(=O)[C@@H](NC(=O)[C@@H](N)CCCCNC(=N)N)[C@@H](C)CC)[C@@H](C)CC)[C@@H](C)CC)[C@@H](C)CC)[C@@H](C)CC)C(=O)N[C@@H](C)C(N)=O` [(SEQ ID NO: 66)-NH2] (H-[hArg]IAG[hArg]IA[hArg]IAG[hArg]IA[hArg]IAG[hArg]IA-NH2), the “MIC P. gingivalis (strain) W50” value is on record as 4 μl/ml. The same measure, in the same setting: for `CCCCCCCC(=O)N[C@@H](CCCCN)C(=O)N[C@H](C(=O)N[C@@H](C)C(=O)NCC(=O)N[C@@H](CCCCN)C(=O)N[C@H](C(=O)N[C@@H](C)C(=O)N[C@@H](CCCCN)C(=O)N[C@H](C(=O)N[C@@H](C)C(=O)NCC(=O)N[C@@H](CCCCN)C(=O)N[C@H](C(=O)N[C@@H](C)C(=O)N[C@@H](CCCCN)C(=O)N[C@H](C(=O)N[C@@H](C)C(=O)NCC(=O)N[C@@H](CCCCN)C(=O)N[C@H](C(=O)N[C@@H](C)C(N)=O)[C@@H](C)CC)[C@@H](C)CC)[C@@H](C)CC)[C@@H](C)CC)[C@@H](C)CC)[C@@H](C)CC` [Oct-(SEQ ID NO: 27)-NH2] (Octanoyl-KIAGKIAKIAGKIAKIAGKIA-NH2) the value was 16 μl/ml. In the case of `CCCCCCCC(=O)N[C@@H](CCCCN)C(=O)N[C@H](C(=O)N[C@@H](C)C(=O)NCC(=O)N[C@@H](CCCCN)C(=O)N[C@H](C(=O)N[C@@H](C)C(=O)N[C@@H](CCCCN)C(=O)N[C@H](C(=O)N[C@@H](C)C(=O)NCC(=O)N[C@@H](CCCCN)C(=O)N[C@H](C(=O)N[C@@H](C)C(=O)N[C@@H](CCCCN)C(=O)N[C@H](C(=O)N[C@@H](C)C(=O)NCC(=O)N[C@@H](CCCCN)C(=O)N[C@H](C(=O)N[C@@H](C)C(=O)O)[C@@H](C)CC)[C@@H](C)CC)[C@@H](C)CC)[C@@H](C)CC)[C@@H](C)CC)[C@@H](C)CC` [Oct-(SEQ ID NO: 27)-OH] (Octanoyl-KIAGKIAKIAGKIAKIAGKIA-OH), the “MIC P. gingivalis (strain) W50” value was 1 μl/ml. On the same count and under the same terms, under `CCCCCCCC(=O)N[C@@H](CCCCNC(=N)N)C(=O)N[C@H](C(=O)N[C@@H](C)C(=O)NCC(=O)N[C@@H](CCCCNC(=N)N)C(=O)N[C@H](C(=O)N[C@@H](C)C(=O)N[C@@H](CCCCNC(=N)N)C(=O)N[C@H](C(=O)N[C@@H](C)C(=O)NCC(=O)N[C@@H](CCCCNC(=N)N)C(=O)N[C@H](C(=O)N[C@@H](C)C(=O)N[C@@H](CCCCNC(=N)N)C(=O)N[C@H](C(=O)N[C@@H](C)C(=O)NCC(=O)N[C@@H](CCCCNC(=N)N)C(=O)N[C@H](C(=O)N[C@@H](C)C(N)=O)[C@@H](C)CC)[C@@H](C)CC)[C@@H](C)CC)[C@@H](C)CC)[C@@H](C)CC)[C@@H](C)CC` [Oct-(SEQ ID NO: 66)-NH2] (Octanoyl-[hArg]IAG[hArg]IA[hArg]IAG[hArg]IA[hArg]IAG[hArg]IA-NH2) stands 2 μl/ml.

For `CCCCCCCC(=O)N[C@@H](CCCCN)C(=O)N[C@H](C(=O)N[C@@H](C)C(=O)N[C@@H](CCCCN)C(=O)N[C@@H](CCCCN)C(=O)N[C@H](C(=O)N[C@@H](C)C(=O)N[C@@H](CCCCN)C(=O)N[C@H](C(=O)N[C@@H](C)C(=O)N[C@@H](CCCCN)C(=O)N[C@@H](CCCCN)C(=O)N[C@H](C(=O)N[C@@H](C)C(=O)N[C@@H](CCCCN)C(=O)N[C@H](C(=O)N[C@@H](C)C(=O)N[C@@H](CCCCN)C(=O)N[C@@H](CCCCN)C(=O)N[C@H](C(=O)N[C@@H](C)C(=O)O)[C@@H](C)CC)[C@@H](C)CC)[C@@H](C)CC)[C@@H](C)CC)[C@@H](C)CC)[C@@H](C)CC` [Oct-(SEQ ID NO: 86)-OH] (Octanoyl-KIAKKIAKIAKKIAKIAKKIA-OH), the “MIC P. gingivalis (strain) W50” value was 1 μl/ml.

Consider “KIAGKIAKIAGKIAKIAGKIA-NH2 [(SEQ ID NO: 27)-NH2]”, for which the “MIC P. gingivalis (strain) W50” value stood at 4 μl/ml.

Target in another assay: not listed separately
Briefly: Inhibition of lipopolysaccharide binding to dye (LPS50). More on the design: species or system E. coli. Particulars: concentration of peptide necessary to inhibit the binding of 50% of the lipopolysaccharide to the dye; absorbance at 460 nm and 510 nm. Here is the method: A stock solution (10×) of 0.6 mM dye is prepared by adding 1.68 mg of (1-ethyl-2-(3-[1-ethylnaphthol(1,2-d)- thiazolin-2-ylidene]-2-methylpropenyl)naphtho-(1,2-d)-thiazolium bromide (Signa E-7762) to 5 ml of 200 proof ethanol. 1 ml of this solution was added to 9 ml ethanol to give 0.06 mM of dye (60 μM dye).
A stock solution of lipopolysaccharide (LPS) from E. coli serotype 0111:B4 was prepared at 1.5 mg/ml. 400 μl of this solution was mixed with 4.6 ml pyrogen free water to give a 120 μg/ml solution.
Row 1 and rows 3 through 12 of a microtiter plate were filled with 100 μl of pyrogen free water or with 10 mg/ml of bovine serum albumin. 200 μl of peptide then is added to row 2 of the microtiter plate at a concentration of […]. 200 μl of pyrogen free water is added to each of the control wells in two lanes (having dye and LPS but no peptide or having dye and no LPS and no peptide). 100 μl then is serially diluted from row 2 through row 12 of the microtiter plate. 50 μl of PBS (pH 7.4) and 50 μl of the LPS solution then are added to row 1 of the plate (blank wells).
Equal volumes of the LPS solution, the dye, and PBS (pH 7.4, approx. 150 mM) are mixed to form a dye-buffer--LPS mixture having LPS at a final concentration of 40 μg/mi and dye at a final concentration of 20 μM. The dye-buffer LPS mixture then is incubated for 10 minutes at room temperature in the dark.
The plate is incubated for 10 minutes at room temperature in the dark, and the absorbance at 460 nm and 510 nm is read. From these absorbances, the LPS50 value, which is the concentration in mg/ml of peptide necessary to inhibit the binding of 50% of the lipopolysaccharide to the dye, is calculated.
For `CCCCCCCC(=O)N[C@@H](CC(C)C)C(=O)N[C@@H](CCCCN)C(=O)N[C@@H](CCCCN)C(=O)N[C@@H](CC(C)C)C(=O)N[C@@H](CCCCN)C(=O)N[C@@H](CCCCN)C(=O)N[C@@H](CC(C)C)C(N)=O` [Oct-(SEQ ID NO: 106)-NH2] (Octanoyl-LKKLKKL-NH2), the LPS50 is 6.80 µg/mL. On the same count and under the same terms, under `CCCCCCCC(=O)N[C@@H](CC(C)C)C(=O)N[C@@H](CC(C)C)C(=O)N[C@@H](CCCCN)C(=O)N[C@@H](CCCCN)C(=O)N[C@@H](CC(C)C)C(=O)N[C@@H](CCCCN)C(=O)N[C@@H](CCCCN)C(=O)N[C@@H](CC(C)C)C(N)=O` [Oct-(SEQ ID NO: 107)-NH2] (Octanoyl-LLKKLKKL-NH2) stands 15.00 µg/mL; under `CCCCCCCC(=O)N[C@@H](CCCCN)C(=O)N[C@@H](CCCCN)C(=O)N[C@@H](CC(C)C)C(=O)N[C@@H](CC(C)C)C(=O)N[C@@H](CCCCN)C(=O)N[C@@H](CCCCN)C(=O)N[C@@H](CC(C)C)C(=O)N[C@@H](CCCCN)C(=O)N[C@@H](CCCCN)C(=O)N[C@@H](CC(C)C)C(N)=O` [Oct-(SEQ ID NO: 109)-NH2] (Octanoyl-KKLLKKLKKL-NH2), 0.60 µg/mL.

Turning to `CCCCCCCC(=O)N[C@@H](CC(C)C)C(=O)N[C@@H](CCCCN)C(=O)N[C@@H](CCCCN)C(=O)N[C@@H](CC(C)C)C(=O)N[C@@H](CC(C)C)C(=O)N[C@@H](CCCCN)C(=O)N[C@@H](CCCCN)C(=O)N[C@@H](CC(C)C)C(=O)N[C@@H](CCCCN)C(=O)N[C@@H](CCCCN)C(=O)N[C@@H](CC(C)C)C(N)=O` [Oct-(SEQ ID NO: 110)-NH2] (Octanoyl-LKKLLKKLKKL-NH2), the LPS50 stood at 0.84 µg/mL. Still for that read-out and setting: under `CCCCCCCC(=O)N[C@@H](C)C(=O)N[C@@H](CCCCN)C(=O)N[C@@H](CCCCN)C(=O)N[C@@H](CC(C)C)C(=O)N[C@@H](CC(C)C)C(=O)N[C@@H](CCCCN)C(=O)N[C@@H](CCCCN)C(=O)N[C@@H](CC(C)C)C(=O)N[C@@H](CCCCN)C(=O)N[C@@H](CCCCN)C(=O)N[C@@H](CC(C)C)C(N)=O` [Oct-(SEQ ID NO: 111)-NH2] (Octanoyl-AKKLLKKLKKL-NH2) stands 1.00 µg/mL; under `CCCCCCCC(=O)N[C@@H](CCCCN)C(=O)N[C@@H](Cc1ccccc1)C(=O)N[C@@H](C)C(=O)N[C@@H](CCCCN)C(=O)N[C@@H](Cc1ccccc1)C(=O)N[C@@H](C)C(=O)N[C@@H](CCCCN)C(=O)N[C@@H](CCCCN)C(=O)N[C@@H](Cc1ccccc1)C(=O)N[C@@H](C)C(N)=O` [Oct-(SEQ ID NO: 121)-NH2] (Octanoyl-KFAKFAKKFA-NH2), 20.00 µg/mL. The same measure, in the same setting: under `CCCCCCCC(=O)N[C@@H](CCCCN)C(=O)N[C@@H](CCCCN)C(=O)N[C@@H](CC(C)C)C(=O)N[C@@H](C)C(=O)N[C@@H](CCCCN)C(=O)N[C@@H](CC(C)C)C(=O)N[C@@H](C)C(=O)N[C@@H](CCCCN)C(=O)N[C@@H](CCCCN)C(=O)N[C@@H](CC(C)C)C(=O)N[C@@H](C)C(N)=O` [Oct-(SEQ ID NO: 123)-NH2] (Octanoyl-KKLAKLAKKLA-NH2) stands 1.70 µg/mL. Still for that read-out and setting: for `CCCCCCCC(=O)N[C@@H](CC(C)C)C(=O)N[C@@H](CCCCN)C(=O)N[C@@H](CCCCN)C(=O)N[C@@H](CC(C)C)C(=O)N[C@@H](CC(C)C)C(=O)N[C@@H](CCCCN)C(=O)N[C@@H](CCCCN)C(N)=O` [Oct-(SEQ ID NO: 137)-NH2] (Octanoyl-LKKLLKK-NH2) the value was 4.80 µg/mL; for `CCCCCCCC(=O)N[C@@H](CC(C)C)C(=O)N[C@@H](CCCCN)C(=O)N[C@@H](CCCCN)C(=O)N[C@@H](CC(C)C)C(=O)N[C@@H](CC(C)C)C(=O)N[C@@H](CCCCN)C(=O)N[C@@H](CC(C)C)C(=O)N[C@@H](CC(C)C)C(=O)N[C@@H](CCCCN)C(N)=O` [Oct-(SEQ ID NO: 138)-NH2] (Octanoyl-LKKLLKLLK-NH2), 1.00 µg/mL; for `CCCCCCCC(=O)N[C@H](CC(C)C)C(=O)N[C@H](CCCCN)C(=O)N[C@H](CCCCN)C(=O)N[C@H](CC(C)C)C(=O)N[C@H](CC(C)C)C(=O)N[C@H](CCCCN)C(=O)N[C@H](CCCCN)C(=O)N[C@H](CC(C)C)C(=O)N[C@H](CCCCN)C(=O)N[C@H](CCCCN)C(=O)N[C@H](CC(C)C)C(N)=O` [Oct-D-(SEQ ID NO: 110)-NH2] (Octanoyl-[dL][dK][dK][dL][dL][dK][dK][dL][dK][dK][dL]-NH2), 0.97 µg/mL.

Compound “Oct-D-(SEQ ID NO:110)-NH2 -melibionic acid: Oct-D-(SEQ ID NO:110)-NH2 with melibionic acid, not further explained (Octanoyl-LKKLLKKLKKL-NH2; not fully specified (some residues); also: melibionic acid, not further explained)” had an LPS50 of 45.00 µg/mL.
